This is an account of results in patent US20150110723A1, “QUINAZOLINE DERIVATIVES, COMPOSITIONS, AND USES RELATED THERETO” (EMORY UNIVERSITY, priority 2012, published 2015).

One assay deals with T1, human Myeloperoxidase (Homo sapiens, UniProt P05164).
T1 sequence (P05164 49-745): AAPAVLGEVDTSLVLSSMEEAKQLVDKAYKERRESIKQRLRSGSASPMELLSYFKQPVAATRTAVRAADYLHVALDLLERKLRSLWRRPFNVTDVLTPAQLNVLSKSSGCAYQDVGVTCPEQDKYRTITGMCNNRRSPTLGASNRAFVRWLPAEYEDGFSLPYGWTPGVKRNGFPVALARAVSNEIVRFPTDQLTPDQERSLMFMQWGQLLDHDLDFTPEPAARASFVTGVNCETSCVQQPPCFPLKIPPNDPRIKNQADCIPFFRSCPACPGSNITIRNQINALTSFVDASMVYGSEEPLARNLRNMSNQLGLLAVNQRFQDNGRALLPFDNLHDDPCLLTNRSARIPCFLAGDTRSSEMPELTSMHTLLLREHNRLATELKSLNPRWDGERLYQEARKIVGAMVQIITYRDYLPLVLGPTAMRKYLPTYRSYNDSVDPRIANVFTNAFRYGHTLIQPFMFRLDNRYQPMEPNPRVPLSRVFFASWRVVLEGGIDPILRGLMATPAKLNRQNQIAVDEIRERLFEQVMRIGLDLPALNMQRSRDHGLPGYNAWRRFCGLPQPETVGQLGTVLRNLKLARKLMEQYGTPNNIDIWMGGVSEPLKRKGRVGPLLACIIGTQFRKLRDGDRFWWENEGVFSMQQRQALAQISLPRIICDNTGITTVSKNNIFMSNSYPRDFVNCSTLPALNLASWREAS
Kind of assay: Amplex Red assay of purified MPO activity. The assay is classed as biochemical. The settings on record: isolated purified human MPO, hydrogen peroxide as substrate. The procedure: In Table 2, isolated, purified human Myeloperoxidase was used in an enzyme assay system including hydrogen peroxide as substrate and Amplex Red to measure MPO enzymatic activity.
Purified human MPO is mixed with the detector molecule Amplex Red (10-acetyl-3,7-dihydroxyphenoxazine) which increases fluorescence at 590 nm) Hydrogen peroxide is added to initiate the reaction and fluorescence is monitored.

Another assay addresses T2, Nox2 (Homo sapiens, UniProt P04839).
T2 construct: superoxide originates from the endogenous Nox2 enzyme system; endogenous in cells; host or cells: isolated human neutrophils, PMA-stimulated
T2 sequence (P04839 2-570 limits assumed): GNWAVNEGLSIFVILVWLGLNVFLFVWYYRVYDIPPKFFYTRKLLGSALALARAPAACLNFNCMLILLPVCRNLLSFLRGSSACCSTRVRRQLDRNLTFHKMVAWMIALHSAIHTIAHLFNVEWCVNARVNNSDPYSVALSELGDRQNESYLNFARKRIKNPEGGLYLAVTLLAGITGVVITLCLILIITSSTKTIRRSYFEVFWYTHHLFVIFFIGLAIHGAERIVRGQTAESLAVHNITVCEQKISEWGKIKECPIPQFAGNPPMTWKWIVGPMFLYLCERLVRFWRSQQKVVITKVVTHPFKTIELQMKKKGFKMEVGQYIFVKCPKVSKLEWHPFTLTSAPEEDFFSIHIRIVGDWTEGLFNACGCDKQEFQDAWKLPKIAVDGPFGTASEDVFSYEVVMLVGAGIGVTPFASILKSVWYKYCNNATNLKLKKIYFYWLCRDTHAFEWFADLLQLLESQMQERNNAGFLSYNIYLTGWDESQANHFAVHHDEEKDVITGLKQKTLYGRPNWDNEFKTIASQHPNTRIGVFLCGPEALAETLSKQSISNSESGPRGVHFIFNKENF
T2 sequence (P13498 2-195 partner limits assumed): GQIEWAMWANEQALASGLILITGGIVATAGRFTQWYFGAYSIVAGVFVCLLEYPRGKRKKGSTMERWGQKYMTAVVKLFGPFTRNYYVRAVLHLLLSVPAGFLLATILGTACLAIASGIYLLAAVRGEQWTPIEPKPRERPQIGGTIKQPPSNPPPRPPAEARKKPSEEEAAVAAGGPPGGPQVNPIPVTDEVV
Kind of assay: Cytochrome c reduction assay for superoxide in activated human neutrophils. The class given is cell-based. The settings on record: for IC50: isolated human neutrophils, PMA-activated, absorbance at 550 nm. As to the method: Isolated human neutrophils represent a system in which superoxide originates from the endogenous Nox2 enzyme system, and can be measured using cytochrome c reduction that is inhibitable by added superoxide dismutase. In Table 3, Nox2 activity in isolated human neutrophils was assayed using cytochrome c reduction.
Isolated human neutrophils, which contain large amounts of Nox2 enzyme, are mixed with superoxide detector cytochrome c. Phorbol 12-myristate 13-acetate (PMA) is added at 1 μM final to stimulate Nox2 activation resulting superoxide production; absorbance at 550 nm is monitored.

For the next assay, the system named is Nox2/MPO System. Briefly: L-012 cell-free assay of Nox2/MPO activity (human neutrophil plasma membranes plus recombinant p47phox, p67phox, Rac1Q61L). The assay is classed as biochemical. The settings on record: for IC50: read-out: L-012 Assay IC50 μM ± SEM; for Inhibition of ROS from neutrophil membranes assayed by L-012 (figure legend): cell-free L-012 assay, FIG. 1 / FIG. 2. As to the method: In Table 1 a cell-free semi-recombinant system (consisting of isolated plasma membranes from human neutrophils as a source for Nox2-p22phox and MPO), supplemented with recombinant p47phox, p67phox and Rac1Q61L (activated Rac), expressed in and isolated from of E. coli. L-012 luminescence was used as a readout to monitor enzymatic activity that monitors the combined enzymatic activity of both the Nox2 system and MPO.
Plasma membranes were prepared from human neutrophils. […]. Membranes were stored at −80 C until use. Membranes are mixed with recombinant, purified cytosolic regulatory proteins (p67Np47 chimera, and constitutively active Rac1 mutant Q61) and FAD, along with varying concentrations of compound, and L-012, which luminesces when it reacts with ROS derived either from Nox2 or from MPO. The reaction is initiated by addition of NADPH and SDS (an artificial activatyor for Nox2). See Curnutte et al., (1987) J. Biol. Chem. 262: 6450-6452.

The next assay relates to xanthine oxidase. Briefly: Xanthine/xanthine oxidase-L-012 control (interference) assay. The class given is biochemical. The following applies: L-012 luminescence, FIG. 1 / FIG. 2. The procedure: Two assays are used to rule out interference. In one assay, xanthine oxidase replaces the Nox2 and MPO enzymatic system as the source of ROS. See Ritsick et al. (2007) Free Radic Biol Med 43: 31-8. Xanthine was added to start the reaction and L012 luminescence was recorded. In a control for the luminol assay, exogenous H2O2 is supplied in place of the Nox expressing H2O2-generating cells or enzyme and luminol luminescence is recorded.

[1] abbreviates: cell-free semi-recombinant system, L-012 luminescence, does not distinguish Nox2 from MPO inhibition.

Consider `O=c1c2cc(F)ccc2[nH]c(=S)n1CCc1cnc[nH]1` [LY1-73], for which the IC50 (in general, the concentration at which inhibition is half-maximal) on human Myeloperoxidase came out at 1.5 µM.
The compound `CN(C)CCCCn1c(SCC(=O)Nc2nc(-c3cccc(Br)c3)cs2)nc2ccccc2c1=O` [AS195] displayed an IC50 against Nox2 of 1.5 µM.
The compound `CN(C)CCCn1c(=S)[nH]c2ccccc2c1=O` [TG6-17-2] came in with an IC50 against human Myeloperoxidase of 1.5 µM.
Compound `COCCCn1c(=S)[nH]c2ccccc2c1=O` [LY1-21] showed a 50% inhibitory concentration (IC50) against human Myeloperoxidase of 3 µM.
On to `CN(C)CCCn1c(=O)[nH]c2ccccc2c1=O` [Compound 2b], for which the “L-012 Assay IC50 μM ± SEM” value with Nox2/MPO System (setting [1]) is recorded as “N•I”.
`O=c1c2ccccc2[nH]c(=S)n1CCN1CCCC1` [TG6-52-2]: the half-inhibitory concentration (IC50) against human Myeloperoxidase amounted to 1.5 µM.
In the case of `CCn1c(=S)[nH]c2ccc(F)cc2c1=O` [Compound 3k], in the assay with Nox2/MPO System (setting [1]), the IC50 came to 0.7 ± 0.1 µM.
The same measure, in the same setting: for `CN(C)CCCn1c(=S)[nH]c2ccccc2c1=O` [Compound 2a] the value was 3.3 ± 0.3 µM.
On the same count and under the same terms, for `CC(C)n1c(=S)[nH]c2cc(F)c(F)cc2c1=O` [Compound 3l] the value was 0.7 ± 0.1 µM; for `COc1cc2[nH]c(=S)n(C(C)C)c(=O)c2cc1OC` [Compound 3m], 0.7 ± 0.1 µM.
In the case of `CN(C)CCCCn1c(SCC(=O)Nc2nc(-c3ccc(Br)cc3)cs2)nc2ccccc2c1=O` [AS158B], the “Inhibition of ROS from neutrophil membranes assayed by L-012 (figure legend)” value in the assay on Nox2/MPO System was “inhibits ROS generation”. At Nox2, this compound gave an IC50 of 3 µM. In the assay with xanthine oxidase, the “Effect on control assay with ROS generated from xanthine plus xanthine oxidase” value is listed as “does not affect control assay”.
`CCN(CC)CCn1c(=S)[nH]c2ccccc2c1=O` [TG6-27-2] gave a half-inhibitory concentration (IC50) against human Myeloperoxidase of 2 µM.
Still for that read-out and setting: as for `COc1cc2[nH]c(=S)n(CCCCN(C)C)c(=O)c2cc1OC` [AS2-30], the figure is 4 µM; as for `CN(C)CCCn1c(=S)[nH]c2ccc(F)cc2c1=O` [TG6-248], 2 µM.
Take `CCN(CC)CCCn1c(SCC(=O)Nc2nc(-c3ccc(Br)cc3)cs2)nc2ccccc2c1=O` [AS158A]: on Nox2, the concentration for half-maximal inhibition (IC50) was determined as 0.6 µM.
Take `O=c1c2ccccc2[nH]c(=S)n1CCc1cnc[nH]1` [LY1-27]: the IC50 against human Myeloperoxidase was 1 µM.
The compound `CN(C)CCCn1c(=S)[nH]c2cc(F)c(F)cc2c1=O` [TG6-250] had a 50% inhibitory concentration (IC50) against human Myeloperoxidase of 1 µM.
Regarding `CC(Sc1nc2ccccc2c(=O)n1CCCN(C)C)C(=O)Nc1nc(-c2cccc(Br)c2)cs1` (centres unmarked) [TG6-73], the “Inhibition of superoxide production from Nox2 in intact human neutrophils (figure legend)” value at Nox2 (cytochrome c reduction, absorbance increase at 550 nm, FIG. 3) was “inhibits superoxide production”. For the same compound, 2 µM corresponded to half-maximal inhibition against Nox2 (IC50).
In turn, `COC(=O)c1ccc2c(=O)n(N)c(=S)[nH]c2c1` [AS261b] came in with a half-inhibitory concentration (IC50) against human Myeloperoxidase of 1.5 µM.
For `CN1CCN(CCCn2c(=S)[nH]c3ccc(F)cc3c2=O)CC1` [LY1-107N], the IC50 at human Myeloperoxidase was found to be 1 µM.
On to `CN(C)CCCn1c(=S)[nH]c2ccc(Cl)cc2c1=O` [TG6-44], for which the “Inhibition of ROS from neutrophil membranes assayed by L-012 (figure legend)” value in the assay on Nox2/MPO System is listed as “Inhibits ROS activity”. The half-maximal inhibitory concentration (IC50) with Nox2/MPO System (setting [1]) turned out to be 1.2 ± 0.1 µM; at human Myeloperoxidase, 1 µM. The “Effect on control assay with ROS generated from xanthine plus xanthine oxidase” value in the assay on xanthine oxidase was “does not affect control assay”.
`CN(C)CCCn1c(SCC(=O)Nc2nc(-c3ccc(Br)cc3)cs2)nc2ccccc2c1=O` [AS148A] showed an IC50 against Nox2 of 1 µM.
On to `O=c1c2ccccc2[nH]c(=S)n1CCc1ccccn1` [Compound 2zzz], for which, in the assay with Nox2/MPO System (setting [1]), the IC50 stood at 4 ± 1 µM.
